Experimental data taken from paper PMC5298231, “The Malaria Parasite's Lactate Transporter PfFNT Is the Target of Antiplasmodial Compounds Identified in Whole Cell Phenotypic Screens” (PLoS Pathogens, 2017).
Where two headings read alike, the source gives them in different places.

System: erythrocytes infected with 3D7 trophozoites
Type: cell-based, Plasmodium falciparum
Conditions: 6 μM

## COc1ccc2c(c1)OC(O)(C(F)(F)C(F)(F)F)CC2=O (stereo not drawn) [MMV007839]
Av 1hr
  ESFG log2 ratio (+MMV007839/-MMV007839): 0.4045
  EVGG log2 ratio (+MMV007839/-MMV007839): 0.01776
  Erythrose 4-phosphate log2 ratio (+MMV007839/-MMV007839): -0.3514
  FAD log2 ratio (+MMV007839/-MMV007839): -0.08791
  FMN log2 ratio (+MMV007839/-MMV007839): -0.2425
  Farnesyl diphosphate log2 ratio (+MMV007839/-MMV007839): -0.0002912
  Folate log2 ratio (+MMV007839/-MMV007839): -0.2316
  Fructose-1-6-bisphosphate log2 ratio (+MMV007839/-MMV007839): 1.122
  Fructose-6-Phosphate log2 ratio (+MMV007839/-MMV007839): 0.08818
  GDP log2 ratio (+MMV007839/-MMV007839): -0.6846
  GDP-mannose log2 ratio (+MMV007839/-MMV007839): 0.01571
  GMP log2 ratio (+MMV007839/-MMV007839): -1.125
  GTP log2 ratio (+MMV007839/-MMV007839): -0.5732
  Geranylgeranyl pyrophosphate log2 ratio (+MMV007839/-MMV007839): -0.5786
  Gluconate log2 ratio (+MMV007839/-MMV007839): 0.1947
  Glucose-6-Phosphate log2 ratio (+MMV007839/-MMV007839): -0.1863
  Glutamate log2 ratio (+MMV007839/-MMV007839): 0.1005
  Glutamine log2 ratio (+MMV007839/-MMV007839): 0.7703
  Glutathione disulfide log2 ratio (+MMV007839/-MMV007839): 0.1943
  Glutathione log2 ratio (+MMV007839/-MMV007839): -0.1919
  Glyceraldehyde 3-phosphate log2 ratio (+MMV007839/-MMV007839): -0.7606
  Glycerone phosphate log2 ratio (+MMV007839/-MMV007839): 0.5926
  HLD log2 ratio (+MMV007839/-MMV007839): -0.3486
  HVDD log2 ratio (+MMV007839/-MMV007839): -0.6691
  Histidine log2 ratio (+MMV007839/-MMV007839): 0.5758
  Homoserine log2 ratio (+MMV007839/-MMV007839): 0.3097
  Hydroxy-L-proline log2 ratio (+MMV007839/-MMV007839): 0.2443
  Hypoxanthine log2 ratio (+MMV007839/-MMV007839): 0.3704
  IDP log2 ratio (+MMV007839/-MMV007839): -0.1758
  IMP log2 ratio (+MMV007839/-MMV007839): -0.02277
  Inosine log2 ratio (+MMV007839/-MMV007839): 0.5137
  Isoleucine log2 ratio (+MMV007839/-MMV007839): 0.3056
  LD log2 ratio (+MMV007839/-MMV007839): 0.3825
  Lactate log2 ratio (+MMV007839/-MMV007839): 2.358
  Leucine log2 ratio (+MMV007839/-MMV007839): 0.1553
  Lysine log2 ratio (+MMV007839/-MMV007839): 1.68
  Malate log2 ratio (+MMV007839/-MMV007839): 0.1358
  Mannitol log2 ratio (+MMV007839/-MMV007839): 0.0108
  Methionine log2 ratio (+MMV007839/-MMV007839): 0.2615
  Myristic acid log2 ratio (+MMV007839/-MMV007839): 0.2261
  N-Acetyl-glutamate log2 ratio (+MMV007839/-MMV007839): -0.007377
  N-Carbamoyl-L-aspartate log2 ratio (+MMV007839/-MMV007839): -1.378
  NAD+ log2 ratio (+MMV007839/-MMV007839): 0.03204
  NADH log2 ratio (+MMV007839/-MMV007839): -1.36
  NADP+ log2 ratio (+MMV007839/-MMV007839): -0.2617
  Octoluse Bisphosphate log2 ratio (+MMV007839/-MMV007839): 1.912
  Ornithine log2 ratio (+MMV007839/-MMV007839): 0.2172
  Orotate log2 ratio (+MMV007839/-MMV007839): -1.216
  Orotidine 5-phosphate log2 ratio (+MMV007839/-MMV007839): -1.5
  Orotidine log2 ratio (+MMV007839/-MMV007839): -0.4366
  PAEF log2 ratio (+MMV007839/-MMV007839): -0.4364
  PAVH log2 ratio (+MMV007839/-MMV007839): -1.011
  PD log2 ratio (+MMV007839/-MMV007839): 0.2765
  PDAV log2 ratio (+MMV007839/-MMV007839): 0.344
  PE log2 ratio (+MMV007839/-MMV007839): 1.21
  PEE log2 ratio (+MMV007839/-MMV007839): 0.2418
  PHF log2 ratio (+MMV007839/-MMV007839): 1.069
  PPVQ log2 ratio (+MMV007839/-MMV007839): 0.02129
  PVNF log2 ratio (+MMV007839/-MMV007839): -0.3384
  PVQ log2 ratio (+MMV007839/-MMV007839): 0.8749
  PVQA log2 ratio (+MMV007839/-MMV007839): -0.7385
  Pantothenate log2 ratio (+MMV007839/-MMV007839): -0.01312
  Phenylalanine log2 ratio (+MMV007839/-MMV007839): 0.1979
  Phosphoenolpyruvate log2 ratio (+MMV007839/-MMV007839): 0.299
  Pipecolate log2 ratio (+MMV007839/-MMV007839): 0.4539
  Proline log2 ratio (+MMV007839/-MMV007839): 0.1646
  Pyridoxine log2 ratio (+MMV007839/-MMV007839): 0.1656
  Pyruvate log2 ratio (+MMV007839/-MMV007839): 1.42
  Ribose-5-phosphate log2 ratio (+MMV007839/-MMV007839): 0.9115
  S-Adenosyl-L-homocysteine log2 ratio (+MMV007839/-MMV007839): -0.1282
  SDGLA log2 ratio (+MMV007839/-MMV007839): -0.148
  SFGD log2 ratio (+MMV007839/-MMV007839): -0.0354
  Sedoheptoluse bisphosphate log2 ratio (+MMV007839/-MMV007839): 0.6095
  Sedoheptulose-1/7-phosphate log2 ratio (+MMV007839/-MMV007839): 0.1578
  Serine log2 ratio (+MMV007839/-MMV007839): 0.004434
  Succinate log2 ratio (+MMV007839/-MMV007839): 0.4975
  Succinate semialdehyde log2 ratio (+MMV007839/-MMV007839): -0.3802
  TNVK log2 ratio (+MMV007839/-MMV007839): -0.9736
  Threonine log2 ratio (+MMV007839/-MMV007839): 0.4202
  Tryptophan log2 ratio (+MMV007839/-MMV007839): 0.09509
  Tyrosine log2 ratio (+MMV007839/-MMV007839): 0.1697
  UDP log2 ratio (+MMV007839/-MMV007839): -0.1565
  UDP-N-acetyl-D-glucosamine log2 ratio (+MMV007839/-MMV007839): 0.0845
  UDP-glucose log2 ratio (+MMV007839/-MMV007839): -0.08513
  UMP log2 ratio (+MMV007839/-MMV007839): -0.3602
  Uracil log2 ratio (+MMV007839/-MMV007839): -0.4869
  Uric Acid log2 ratio (+MMV007839/-MMV007839): 0.02649
  VD log2 ratio (+MMV007839/-MMV007839): 1.818
  Valine log2 ratio (+MMV007839/-MMV007839): 0.1364
  Xanthine log2 ratio (+MMV007839/-MMV007839): 0.3309
  dADP log2 ratio (+MMV007839/-MMV007839): -0.3244
  dATP log2 ratio (+MMV007839/-MMV007839): 0.05147
  dCDP log2 ratio (+MMV007839/-MMV007839): 0.3024
  dGMP log2 ratio (+MMV007839/-MMV007839): 0.08489
  dTMP log2 ratio (+MMV007839/-MMV007839): -0.02247
  dTTP log2 ratio (+MMV007839/-MMV007839): 0.2046
  dUMP log2 ratio (+MMV007839/-MMV007839): 1.26
  myo-Inositol log2 ratio (+MMV007839/-MMV007839): -0.07002
  sn-Glycerol 3-phosphate log2 ratio (+MMV007839/-MMV007839): 1.379
  sn-glycero-3-Phospho-1-inositol log2 ratio (+MMV007839/-MMV007839): -0.128
Av 1hr, medRt 15.0954
  Hexose-phosphate log2 ratio (+MMV007839/-MMV007839): -0.2585
Av 1hr, medRt 16.8944
  6-Phospho-D-gluconate log2 ratio (+MMV007839/-MMV007839): -0.386
Av 1hr, medRt 17.0788
  Hexose-phosphate log2 ratio (+MMV007839/-MMV007839): -1.607
Av 1hr, medRt 17.4636
  6-Phospho-D-gluconate log2 ratio (+MMV007839/-MMV007839): -0.04985
Av 3hr
  1-3 (2-3)-diphopshateglycerate log2 ratio (+MMV007839/-MMV007839): 0.8355
